Converted amounts (≈) assume the structure as drawn. Where two headings read alike, the source gives them in different places. Starred links: 1 amine or outer side, 2 acyl side, 3 side chain; linkers in the order of their positions; H or OH if unused. Positions of bridges follow the written chain, without caps; N, C: chain ends. Non-standard residues stand in square brackets, D forms with d. Residues, ends and D or L forms follow the SMILES beside them. *: point of attachment. hTyr(3S-OH,4S-OH,3'-OSO3H) = N[C@H](C(=O)O)[C@H](O)[C@@H](O)c1ccc(O)c(OS(=O)(=O)O)c1; pTerphenylCO(4''-OnC5H11) = CCCCCOc1ccc(-c2ccc(-c3ccc(C(=O)*)cc3)cc2)cc1; Orn(4R-OH,5R-OH) = O=C([C@H](C[C@@H](O)[C@@H](O)N[*:3])N[*:1])[*:2]; hTyr(3S-OH,4S-OH) = N[C@H](C(=O)O)[C@H](O)[C@@H](O)c1ccc(O)cc1; Pro(3S-OH,4S-Me) = C[C@H]1CN[C@H](C(=O)O)[C@H]1O; X1 = CCCCCOc1ccc(-c2cc(-c3ccc(C(=O)*)cc3)no2)cc1; Gln(3R-OH) = NC(=O)C[C@@H](O)[C@H](N)C(=O)O; Hyp = O=C(O)[C@@H]1C[C@@H](O)CN1
Assays:
Candida albicans (CA) = test: Post-antifungal effect (PAFE); assay type: cell-based; settings: CA clinical isolate; all concentrations (1×, 4×, 16× bMIC), 1 h exposure
Experimental: (§1) Materials &Methods: Six Candida spp. […] For PAFE determinations, antifungal concentrations of 1×, 4×, and 16× bMiC were used. A starting inoculum of 1–[…] CFU/mLwas added to RPMl with the antifungal agent. Post 1 h exposure, cells were washed 3 times and resuspended in 10 mL of pre-warmed RPMl. Colony counts were performed at to, 1 h before and after final washt t2, t4, t8, t12, t24 and t48 h. PAFE was calculated as the difference in time required for isolates to rrow1-logio following the final cell wash compared to the growth control.

Candida auris isolates = test: microbe, parasite or virus in culture; assay type: cell-based; settings: for categorised as resistant on MIC: CDC guidelines; for MIC: Candidozyma auris, IQR given, read-out: median MIC
Other species of Candida = assay type: cell-based, Candida spp.
[1] = test system: invasive C. glabrata strains; test: YeastOne Sensititre colorimetric broth microdilution; assay type: cell-based, Candida glabrata; settings: Nakaseomyces glabratus
Experimental: Material and Method: Thirty-six clinical isolates of invasive C. glabrata strains were analyzed in this study. Minimum inhibitory concentrations (MICs) were determined using colorimetric broth microdilution (YeastOneSensititre, Trek diagnostics). Genomic DNA was isolated using Qiagen DNA extraction Kit. The FKS1 and FKS2 gene fragment were amplified and PCR products were purified prior to sequencing. Double-strand sequencing of PCR products was performed using Sanger sequencing methodology. Sequences were analyzed with MEGA-6 software to identify specific SNP combination against wild-type sequences of C. glabrata.

C. krusei [2] = assay type: cell-based, Candida krusei
C. parapsilosis = assay type: cell-based, Candida parapsilosis
C. albicans = assay type: cell-based, Candida albicans
[3] = test system: C. auris clinical strains; test: organism not typed; assay type: cell-based, Candida auris; settings: range, 78 strains from patients with COVID-19
C. tropicalis = assay type: cell-based, Candida tropicalis
C. krusei [4] = test: ARIA surveillance, CLSI M27 broth microdilution; assay type: cell-based, Candida krusei
Experimental: (§2) Materials & Methods: Isolates (n = 730) were collected and re-identified by MALDI-TOF or molecular methods. […] Percentage susceptibility (%S) or wild-type (%WT) were calculated according to CLSI breakpoints (CLSI supplement M60) or epidemiological cut-off values (CLSI supplement M59), respectively.

C. guilliermondii = test: EUCAST E. Def 7.3.2 microdilution; assay type: cell-based, Candida guilliermondii; settings: n = 62; for MIC50 / MIC90: Meyerozyma guilliermondii
C. glabrata [5] = assay type: cell-based, Candida glabrata
C. parapsilosis (CPRP) = test: Post-antifungal effect (PAFE); assay type: cell-based, Candida parapsilosis
Experimental: as §1

[6] = test system: C. albicans and C. glabrata; test: FUNGINOS candidemia survey, susceptibility according to CLSI; assay type: cell-based; settings: share of isolates
C. fermentati = test: EUCAST E. Def 7.3.2 microdilution; assay type: cell-based, Candida fermentati; settings: n = 2
C. glabrata (CGLA) = test: Post-antifungal effect (PAFE); assay type: cell-based, Candida glabrata
Experimental: as §1

C. glabrata [7] = test: ARIA surveillance, CLSI M27 broth microdilution; assay type: cell-based, Candida glabrata; settings: CLSI M60
Experimental: as §2

[8] = test system: Rasamsonia argillacea species complex; test: Antifungal susceptibility testing; assay type: cell-based; settings: sputum isolate of a CF patient
Aspergillus tubingensis = test: EUCAST susceptibility; assay type: cell-based; settings: read-out: MIC
Experimental: The fungus was identified as Aspergillus niger and liposomal amphotericine B was switched to anidulafungin pending susceptibility testing as the patient had pre-existing […] (eGFR CKD-EPI 40 mL/min/1.73 m²). […] Despite increasing the anidulafungin dosage to 200 mg daily and adequate voriconazol levels, serum galactomannan levels remained elevated (index 2.1 at discharge). […] Since no extracardiac sources were found and the patient did well clinically, they were discharched. Anidulafungin was switched to caspofungin to facilitate ongoing IV treatment in the outpatient setting. […] The patient died shortly after. Obduction was not performed.

[9] = test system: Parathyridaria percutanea; test: In vitro antifungal susceptibility; assay type: cell-based
[10] = test system: Phaeoacremonium parasiticum; test: Antifungal susceptibility testing; assay type: cell-based
Experimental: Results: Cultures for bacteria were sterile. Culture on Sabouraud was positive after 5 days of incubation, showing slow growing and initially white colonies. […] Its identification was performed by sequencing the internal transcribed spacer (ITS) region of ribosomal DNA, being the isolate identified as Phaeoacremonium parasiticum (100% homology).

C. auris = test: EUCAST EDef 7.3.1 MIC and checkerboard microdilution; assay type: cell-based, Candida auris
Experimental: Methods: We studied 22 C. auris isolates obtained from different clinical samples from the Hospital La Fe, Valencia, Spain (eight from blood culture, seven from oropharynx and seven from urine cultures). Candida parapsilosis ATCC 22019 and Candida krusei ATCC 6258 were used as quality controls. The minimum inhibitory concentration (MIC) was determined according to the European Committee on Antibiotic Susceptibility Testing (EUCAST) EDef 7.3.1 document. The interaction between citral and the rest of antifungal drugs was assessed by a checkerboard microdilution method. […] The in vitro interaction of the drug combinations was interpreted in terms of the fractional inhibitory concentration index (FICI) as follows: FICI < 1, synergistic; FICI equal to 1, additive; and FICI > 1, indifferent or antagonistic.

C. glabrata isolates = test: Rapid XTT assay based on EUCAST E.Def 7.3; assay type: cell-based, Candida glabrata; settings: […], mean ± SD
[11] = 36 clinical isolates, read-out: median (Min–Max) MIC

## CCCCCOc1ccc(-c2cc(-c3ccc(C(=O)N[C@H]4C[C@@H](O)[C@@H](O)NC(=O)[C@@H]5[C@@H](O)[C@@H](C)CN5C(=O)[C@H]([C@H](O)CC(N)=O)NC(=O)[C@H]([C@H](O)[C@@H](O)c5ccc(O)c(OS(=O)(=O)O)c5)NC(=O)[C@@H]5C[C@@H](O)CN5C(=O)[C@H]([C@@H](C)O)NC4=O)cc3)no2)cc1 [micafungin] (X1-[Orn(4R-OH,5R-OH)]T[Hyp][hTyr(3S-OH,4S-OH,3'-OSO3H)][Gln(3R-OH)][Pro(3S-OH,4S-Me)]; lactam 1-C)
Candida albicans (CA)
  PAFE: > 14.9 h
Candida auris isolates
  categorised as resistant on MIC: 1.4%
  MIC: 0.12 µg/mL (≈ 0.0945 µM)
Other species of Candida
  I (intermediate) isolates, n (%): 0 (0%)
  R (resistant) isolates, n (%): 0 (0%)
  S (sensitive) isolates, n (%): 18 (100%)
[1]; [11]
  MIC: 0.015 µg/mL
[1]; isolate with FKS2 I661T
  MIC: 0.015 µg/mL
C. krusei [2]
  S (sensitive) isolates, n (%): 3 (100%)
C. parapsilosis
  I (intermediate) isolates, n (%): 0 (0%)
  R (resistant) isolates, n (%): 0 (0%)
  S (sensitive) isolates, n (%): 132 (100%)
C. albicans
  I (intermediate) isolates, n (%): 1 (0.7%)
  R (resistant) isolates, n (%): 1 (0.7%)
  S (sensitive) isolates, n (%): 136 (98.6%)
[3]
  MIC: 0.06 to 1 µg/mL (≈ 0.0472 to 0.787 µM)
C. tropicalis
  I (intermediate) isolates, n (%): 0 (0%)
  R (resistant) isolates, n (%): 0 (0%)
  S (sensitive) isolates, n (%): 44 (100%)
C. krusei [4]; Argentina, Australia, Italy and Taiwan
  susceptibility: 100%
C. krusei [4]; USA
  susceptibility: 73.3%
C. guilliermondii
  MIC50: 0.25 µg/mL (≈ 0.197 µM)
  MIC90: 0.5 µg/mL (≈ 0.394 µM)
  GM: 0.228 µg/mL
  MIC Range: 8 to 500 ng/mL
C. glabrata [5]
  I (intermediate) isolates, n (%): 0 (0%)
  R (resistant) isolates, n (%): 0 (0%)
  S (sensitive) isolates, n (%): 55 (100%)
C. parapsilosis (CPRP); CPRP ATCC 22019, 1× and 4× bMIC
  PAFE: no micafungin PAFE was observed
C. parapsilosis (CPRP); CPRP ATCC 22019, 16× bMIC
  PAFE: 1.8 h
C. parapsilosis (CPRP); CPRP clinical isolate, 1× bMIC
  PAFE: 1.6 h
C. parapsilosis (CPRP); CPRP clinical isolate, 4× bMIC
  PAFE: 7.4 h
C. parapsilosis (CPRP); CPRP clinical isolate, 16× bMIC
  PAFE: 31.3 h
[6]
  non-susceptibility: 2%
C. fermentati
  GM: 0.125 µg/mL
  MIC Range: 0.125 µg/mL (≈ 0.0984 µM)
C. glabrata (CGLA); CGLA #3 isolate, 1× bMIC
  PAFE: 20.4 h
C. glabrata (CGLA); both CGLA strains, all concentrations
  PAFE: > 40 h

## CCCCCOc1ccc(-c2ccc(-c3ccc(C(=O)N[C@H]4C[C@@H](O)[C@@H](O)NC(=O)[C@@H]5[C@@H](O)[C@@H](C)CN5C(=O)[C@H]([C@@H](C)O)NC(=O)[C@H]([C@H](O)[C@@H](O)c5ccc(O)cc5)NC(=O)[C@@H]5C[C@@H](O)CN5C(=O)[C@H]([C@@H](C)O)NC4=O)cc3)cc2)cc1 [anidulafungin] ({pTerphenylCO(4''-OnC5H11)}-[Orn(4R-OH,5R-OH)]T[Hyp][hTyr(3S-OH,4S-OH)]T[Pro(3S-OH,4S-Me)]; lactam 1-C)
C. glabrata [7]; Italy
  susceptibility: 15.8%
C. glabrata [7]; Panama
  susceptibility: 91.7%
Candida auris isolates
  categorised as resistant on MIC: none
  MIC: 0.25 µg/mL (≈ 0.219 µM)
[1]; [11]
  MIC: 0.06 µg/mL
[1]; isolate with FKS2 I661T
  MIC: 0.06 µg/mL
[8]
  minimal inhibitory concentrations (MIC): low MIC
Aspergillus tubingensis
  MIC: 0.03 µg/mL (≈ 0.0263 µM)
[9]
  in vitro susceptibility category: resistance
[3]
  MIC: 0.015 to 8 µg/mL (≈ 0.0132 to 7.02 µM)
[10]
  minimal inhibitory concentrations (MIC), in words: higher
C. auris
  MIC of anidulafungin in combination with citral: 0.016 µg/mL
C. auris; Candidozyma auris, 22 clinical isolates
  MIC: 0.125 µg/mL
C. guilliermondii
  MIC50: 0.25 µg/mL (≈ 0.219 µM)
  MIC90: 0.5 µg/mL (≈ 0.438 µM)
  GM: 0.304 µg/mL
  MIC Range: 8 to 1000 ng/mL
[6]
  non-susceptibility: 2%
C. glabrata isolates; drug-free 0.37 ± 0.04
  XTT-absorbance in drug-treated wells: 0.11 ± 0.03
C. glabrata isolates; drug-free 0.39 ± 0.05
  XTT-absorbance in drug-treated wells: 0.25 ± 0.06
C. fermentati
  GM: 0.25 µg/mL
  MIC Range: 0.25 µg/mL (≈ 0.219 µM)

From article PMC8624133, “10th Trends in Medical Mycology Held on 8 to 11 October 2021, Aberdeen, Scotland, Organized by the European Confederation of Medical Mycology (ECMM)” (Journal of Fungi, 2021)
